Values quoted from earlier work as cited in patent US20090324709A1, “LIPOSOMAL FORMULATIONS” (Italfarmaco, S.A., priority 2004, published 2009).
Read-outs that look alike come from different tables or passages of the source.

Conditions: for retention of iododeoxyuridine: egg PC:cholesterol 15:1 DRV liposomes; for release of 5-FU: DSPC liposomes, six hours after preparation; for retention of acyclovir: neutral egg PC:cholesterol 15:1 DRV liposomes

O=c1[nH]c(=O)n([C@H]2C[C@H](O)[C@@H](CO)O2)cc1I [iododeoxyuridine]
retention of iododeoxyuridine (24 hours at 4° C.): 50%
retention of iododeoxyuridine (one hour at 37° C.): 20%

O=c1[nH]cc(F)c(=O)[nH]1 [Example 5-FU, 5-fluorouracil]
release of 5-FU (25° C.): 10%
release of 5-FU (37° C.): 50%
5-FU that escapes (LUV DSPC liposomes, 60 minutes): more than 75%
escape of 5-FU (LUV SPC, SPC:Cholesterol (1:1), SPC:Cholate (84:16), in saturated 5-FU solution, after 50 minutes): more than 50%
release of the drug on eliminating the pH gradient (LUV liposomes actively charged through pH gradient (U.S. Pat. No. 6,083,530)): immediate
release of initially encapsulated 5-FU (SPC:Cholate liposomes in solution without 5-FU, after 5 minutes): 80%
5-FU initially encapsulated still inside the liposomes (multilamellar liposomes of sphingomyelin, cholesterol and dicetyl-phosphate, 40 hours at 25° C.): 20%
5-FU remaining inside (type A liposome soy lecithin:cholesterol hemisuccinate:cholesterol (10:1:4), 28 days at room temperature): 10%
5-FU released (type B liposomes DPPC:cholesterol hemisuccinate:cholesterol (10:1:4), 42 days at room temperature): 40%

O=c1[nH]c(=O)n([C@H]2C[C@H](O)[C@@H](CO)O2)cc1F [floxuridine]
retention of floxuridine (MLV SM:CHOL:DCP 4.8:2.8:1, 40 hours at 25° C.): 70%

Nc1nc2c(ncn2COCCO)c(=O)[nH]1 [acyclovir]
retention of acyclovir (24 hours at 37° C.): 48%
retention of acyclovir (14 days at 4° C.): 44%

CN(Cc1cnc2nc(N)nc(N)c2n1)c1ccc(C(=O)N[C@@H](CCC(=O)O)C(=O)O)cc1 [methotrexate]
methotrexate retention (EPC liposomes, MLV and REV, 30 days at 4° C.): 70%
methotrexate retention (EPC liposomes, MLV and REV, 30 days at 25° C.): 40%
methotrexate retention (EPC liposomes, MLV and REV, 30 days at 37° C.): < 10%
methotrexate retention (MLV HSPC:CHOL and HSPC:CHOL:DCP, 8 hours at 37° C.): 35%
